Laboratory results from US20250248391A1, “VIABLE VITREOUS GRAFTS FOR PRESERVATION AND RECOVER OF TISSUE FOR TRANSPLANT AND CLINICAL USE” (Clemson University Research Foundation, priority 2024, published 2025).
Where two headings read alike, the source gives them in different places.

Tests used:
[1] = alamarBlue metabolic activity of meniscal specimens; assay type: cell-based, Yorkshire pigs; conditions: 3.5 mm/SF: 3.5 mm specimens slow-frozen in Me2SO (10% v/v), normalized to specimen before treatment
Procedure: (§1) Following the completion of the warming and unloading steps, all tissues were subjected to recovery in DMEM supplemented with 1% P/S (e.g., DMEM/P/S) for one hour within a 37° C. incubator. Subsequently, the alamarBlue assay was conducted to assess the metabolic activity of tissues. This assay employs a water soluble fluorometric viability indicator, relying on the detection of metabolic activity. […] In the case of each meniscal specimen and each TMJ disc, evaluations were carried out both before and after different preservation treatments. For the whole meniscus, each fresh, slow-frozen, or vitrified sample underwent manual sectioning into sagittal sections, each measuring 1-2 mm in thickness, spanning from anterior to posterior horn. Within each region, a minimum of three sections were obtained.
(§2) Either each individual specimen or each section of the whole meniscus was incubated in 1 ml of DMEM/P/S and 100 μl alamarBlue reagent. This process was carried out under standard cell culture conditions for 3 hours. In contrast, each whole TMJ disc was incubated in 5.4 ml of DMEM/P/S and 600 μl alamarBlue reagent under standard cell culture conditions for 4 hours. Subsequently, fluorescence measurements were conducted in duplicate using a multimode microplate reader at an excitation wavelength of 544 nm and an emission wavelength of 590 nm. Following assessment, each sample was rinsed with DMEM/P/S for 30 mins to remove the alamarBlue reagent prior to proceeding with subsequent measurements. The time-course viability from day 0 to day 4 for each sample was assessed. In the case of meniscal specimens and whole TMJ discs, the results (expressed in relative fluorescence unit, RFU) of the slow-frozen and vitrified groups were normalized to the measurements taken from their respective fresh samples before any preservation treatments were applied. For the measurements of the whole meniscus, the results (expressed as RUF/mg of dry weight) from the slow-frozen and vitrified menisci were normalized to the corresponding values of fresh menisci within the same batch. Dry weight values of samples were measured using an analytical balance after being placed in a 60° C. oven over 48 hours subsequent to the completion of the time-course alamarBlue assay.

[2] = tested on: whole TMJ discs; assay: alamarBlue metabolic activity of whole TMJ discs; assay type: cell-based, Yorkshire pigs; conditions: Slow-frozen (Me2SO 10% v/v)
Procedure: as §1, §2

[3] = human articular cartilage, ref [6], cited from earlier work
[4] = 1.4M, tissue-engineered collagen scaffold, 20° C.; ref [7]; cited from earlier work
[5] = tested on: whole menisci; assay: Fluorescence live/dead viability of whole menisci; assay type: cell-based, Yorkshire pigs; conditions: for Viability (%): whole menisci, SF (slow-frozen in Me2SO 10% v/v)
Procedure: (§3) Tissue viability was assessed by fluorescence live/dead staining. Each cylindrical specimen was longitudinally divided into two sections for imaging along the sagittal plane. To comprehensively assess the whole meniscus, both transverse and sagittal sections were prepared. In the case of transverse sections, a 300 μm thick slice of the whole meniscus was obtained using a vibrating blade microtome due to its larger surface area. For sagittal sections, approximately 1-2 mm thick slices were manually cut from corresponding regions. For the TMJ disc samples, strips measuring 6 mm in width, encompassing the anterior, central, posterior, medial, and lateral regions, were manually excised from the whole disc using a scalpel. All cut meniscal slices were immersed in DMEM with 1% P/S culture medium with 4 μM calcein AM and 2 μM ethidium homodimer-1 at room temperature for 2 hours before imaging. In contrast, the TMJ slices underwent staining with distinct dye concentrations: 2 µM calcein AM and 4 μM ethidium homodimer-1, following the same set of conditions. The green-fluorescent calcein indicates living cells by intracellular esterase activity, while the red-fluorescent ethidium homodimer-1 indicates dead cells by loss of plasma membrane integrity. All images were captured using an inverted multiphoton laser scanning microscope. The excitation wavelength was set as 800 nm. Green fluorescence was collected within the 495-540 nm range, and red fluorescence was collected in the 575-630 nm range. Images were taken at a depth of 60 μm below the tissue surface. The whole transverse section images of the whole menisci and the whole sagittal section images of the TMJ disc strips were captured using a 4× objective magnification and stitched together. An interesting view of each region was imaged using a higher objective magnification of 10×. All sagittal section images for meniscal specimens, three primary regions of whole menisci, and five primary regions of whole TMJ discs were captured using a 10× objective magnification for quantitative analysis. Live/dead quantification of 3.5 mm thick specimens was performed within the middle layer image (with a thickness of 1.26 mm) to avoid the count of dead cells on both surfaces associated with manual sectioning. In the context of sagittal sections in each region of the whole meniscus, images were acquired, and cell viability was quantified for the inner, middle, and outer layers. Images of sagittal sections in each region of the TMJ disc were acquired and used for viability quantification. Live/dead quantification was performed using software. Cell viability was defined as the proportion between the count of viable cells and the total cell count (comprising both live and dead cells).

[6] = articular cartilage of calves, 22° C.; 3.1M Me2SO, 3.1M PG, 2.2M formamide; ref [4]; cited from earlier work
[7] = 6.5M, porcine articular cartilage, ref [5], cited from earlier work
[8] = tested on: whole menisci; assay: alamarBlue metabolic activity of whole menisci; assay type: cell-based, Yorkshire pigs
Procedure: as §1, §2

[9] = tested on: whole TMJ discs; assay: Fluorescence live/dead viability of whole TMJ discs; assay type: cell-based, Yorkshire pigs; conditions: for Viability (%): Slow-frozen (Me2SO 10% v/v)
Procedure: as §3

C[S+](C)[O-] [Me2SO, dimethyl sulfoxide]
Metabolic activity, Viability (%) ([1]; Day 0 post-warming): 47.0 ± 16.4%
Metabolic activity, Viability (%) ([1]; Day 1): 43.0 ± 21.0%
Metabolic activity, Viability (%) ([1]; Day 2): 39.0 ± 19.8%
Metabolic activity, Viability (%) ([1]; Day 3): 39.5 ± 16.3%
Metabolic activity, Viability (%) ([1]; Day 4): 52.6 ± 14.5%
Metabolic activity, Viability (%) ([2]; Day 0 post-warming, relative to respective fresh values): 32.0 ± 0.8%
Metabolic activity, Viability (%) ([2]; Day 1, relative to respective fresh values): 33.3 ± 0.5%
Metabolic activity, Viability (%) ([2]; Day 2, relative to respective fresh values): 28.9 ± 0.5%
Metabolic activity, Viability (%) ([2]; Day 3, relative to respective fresh values): 29.1 ± 1.7%
Metabolic activity, Viability (%) ([2]; Day 4, relative to respective fresh values): 28.0 ± 0.6%
D (× 10^−10 m^2/s) ([3]; 1.4M, 4° C.): 6.1 × 10^−10 m^2/s
D (× 10^−10 m^2/s) ([3]; 1.4M, 27° C.): 14.4 × 10^−10 m^2/s
D (× 10^−10 m^2/s) ([3]; 14M, 4° C.): 3.1 × 10^−10 m^2/s
D (× 10^−10 m^2/s) ([3]; 14M, 27° C.): 6.8 × 10^−10 m^2/s
D (× 10^−10 m^2/s) [4]: 2.4 × 10^−10 m^2/s
viability in whole menisci, average ([5]; slow freezing (Me2SO 10% v/v)): ~21.6%
Viability (%) ([5]; Anterior region): 19.5 ± 9.6%
Viability (%) ([5]; Central region): 23.7 ± 6.4%
Viability (%) ([5]; Inner layer of sagittal sections): 20.3 ± 13.8%
Viability (%) ([5]; Middle layer of sagittal sections): 20.8 ± 8.9%
Viability (%) ([5]; Outer layer of sagittal sections): 24.6 ± 16.9%
Viability (%) ([5]; Posterior region): 21.4 ± 18.2%
D (× 10^−10 m^2/s) [6]: 4.63 ± 0.85 × 10^−10 m^2/s
D (× 10^−10 m^2/s) ([7]; 4° C.): 2.4 × 10^−10 m^2/s
D (× 10^−10 m^2/s) ([7]; 22° C.): 3.0 × 10^−10 m^2/s
D (× 10^−10 m^2/s) ([7]; 37° C.): 4.5 × 10^−10 m^2/s
Metabolic activity, Viability (%) ([8]; Anterior: SF (slow-frozen in Me2SO 10% v/v), Day 0 post-warming, normalized to fresh menisci day 0): 32.9 ± 11.1%
Metabolic activity, Viability (%) ([8]; Anterior: SF (slow-frozen in Me2SO 10% v/v), Day 1, normalized to fresh menisci day 0): 39.7 ± 10.1%
Metabolic activity, Viability (%) ([8]; Anterior: SF (slow-frozen in Me2SO 10% v/v), Day 2, normalized to fresh menisci day 0): 31.4 ± 7.8%
Metabolic activity, Viability (%) ([8]; Anterior: SF (slow-frozen in Me2SO 10% v/v), Day 3, normalized to fresh menisci day 0): 34.0 ± 6.9%
Metabolic activity, Viability (%) ([8]; Anterior: SF (slow-frozen in Me2SO 10% v/v), Day 4, normalized to fresh menisci day 0): 36.7 ± 7.5%
Metabolic activity, Viability (%) ([8]; Central: SF (slow-frozen in Me2SO 10% v/v), Day 0 post-warming, normalized to fresh menisci day 0): 43.1 ± 13.8%
Metabolic activity, Viability (%) ([8]; Central: SF (slow-frozen in Me2SO 10% v/v), Day 1, normalized to fresh menisci day 0): 55.4 ± 16.8%
Metabolic activity, Viability (%) ([8]; Central: SF (slow-frozen in Me2SO 10% v/v), Day 2, normalized to fresh menisci day 0): 35.1 ± 11.4%
Metabolic activity, Viability (%) ([8]; Central: SF (slow-frozen in Me2SO 10% v/v), Day 3, normalized to fresh menisci day 0): 37.3 ± 9.6%
Metabolic activity, Viability (%) ([8]; Central: SF (slow-frozen in Me2SO 10% v/v), Day 4, normalized to fresh menisci day 0): 35.3 ± 11.4%
Metabolic activity, Viability (%) ([8]; Posterior: SF (slow-frozen in Me2SO 10% v/v), Day 0 post-warming, normalized to fresh menisci day 0): 38.0 ± 9.3%
Metabolic activity, Viability (%) ([8]; Posterior: SF (slow-frozen in Me2SO 10% v/v), Day 1, normalized to fresh menisci day 0): 47.1 ± 7.2%
Metabolic activity, Viability (%) ([8]; Posterior: SF (slow-frozen in Me2SO 10% v/v), Day 2, normalized to fresh menisci day 0): 34.9 ± 7.3%
Metabolic activity, Viability (%) ([8]; Posterior: SF (slow-frozen in Me2SO 10% v/v), Day 3, normalized to fresh menisci day 0): 42.4 ± 7.4%
Metabolic activity, Viability (%) ([8]; Posterior: SF (slow-frozen in Me2SO 10% v/v), Day 4, normalized to fresh menisci day 0): 45.7 ± 13.5%
Viability (%) ([9]; Anterior): 37.4 ± 2.7%
Viability (%) ([9]; Central): 40.1 ± 4.2%
Viability (%) ([9]; Lateral): 39.0 ± 2.7%
Viability (%) ([9]; Medial): 38.3 ± 3.5%
Viability (%) ([9]; Posterior): 37.1 ± 2.2%
viability ([9]; slow-frozen samples (Me2SO 10% v/v)): less than 40%

CC(O)CO (stereo not shown) [PG, propylene glycol]
D (× 10^−10 m^2/s) [6]: 3.47 ± 0.67 × 10^−10 m^2/s
D (× 10^−10 m^2/s) ([7]; 4° C.): 0.9 × 10^−10 m^2/s
D (× 10^−10 m^2/s) ([7]; 22° C.): 1.6 × 10^−10 m^2/s
D (× 10^−10 m^2/s) ([7]; 37° C.): 2.2 × 10^−10 m^2/s

NC=O [formamide]
D (× 10^−10 m^2/s) [6]: 6.67 ± 0.70 × 10^−10 m^2/s
